From US20080145499A1, “Method for treating fruit or vegetables with phosphorous ions and corresponding compositions” (priority 2006, published 2008)
Where “and” joins values, the source holds several entries; their conditions need not be identical. Equal values may be shown once. Read-outs that look alike come from different tables or passages of the source.

Legend:
Penicillium digitatum = assay: Washington oranges inoculated with Penicillium digitatum, eugenol/potassium phosphite; type: in vivo
Method: Washington oranges inoculated with Penicillium digitatum came into contact with a eugenol/potassium phosphite solution containing 1,100 ppm of eugenol and 1,600 ppm of potassium phosphite for 2 minutes at 38° C. and 48° C. The treated fruit was kept at 7° C. and then examined after 9 and 18 days. The fruit was compared with fruit treated with only eugenol in the same conditions and with inoculated fruits that had not been treated.

P. expansum = assay: Natural P. expansum infections in organic Elstar apples; type: in vivo
Text: 2—In vivo Study of the Activity of Phosphonic Acid (Kphos) on P. expansum Infections in Apples

P. Digitatum [1] = assay: Navel oranges damaged and inoculated with P. digitatum, PA with Bioxeda and thermotherapy; type: in vivo; conditions: 18 days, 48° C. 2 min
Method: 3—Efficacy of PA and Thermotherapy on P. digitatum Infections in Oranges
In this experiment, the oranges were damaged then inoculated with P. Digitatum (500,000 sp/mL) and treated 15 hours later; they were stored at 5° C.

P. expansum spores = test system: P. expansum spores
Text: 1—In vitro Study of the Activity of Phosphonic Acid on P. expansum

P. Digitatum [2] = assay: Natural P. digitatum infections in Navel oranges, comparison with three fungicides; type: in vivo; conditions: Thermotherapy + phosphonic acid 2,000 ppm; SPC 3 days at ambient temperature
Text: 4—Efficacy of PA on P. digitatum Infections in Oranges. Comparison with a Mixture of Three Fungicides. All Treatments Were Combined with Thermotherapy

oranges = conditions: PA up to 4,000 ppm, with thermotherapy
Method: (§1) A new experiment which took place under conditions very similar to those in real life was carried out: natural infections, storage in cold conditions, simulation of storage periods (SPC).

P. Digitatum [3] = test system: P. Digitatum
Method: 5—Efficacy of PA on Natural P. digitatum Infections in Oranges Combined with Thermotherapy
as §1

[4] = test system: strain of Penicillium digitatum resistant to imazalil; assay: Valencia oranges inoculated with Penicillium digitatum resistant to imazalil; type: in vivo; conditions: 52° C., 2 minutes
Method: Valencia oranges inoculated with a strain of Penicillium digitatum resistant to imazalil were treated at 52° C. and were in contact for 2 minutes with: • 300 ppm imazalil; • 3,000 ppm potassium phosphite • the two products mixed in proportions of 300 ppm imazalil and 3,000 ppm potassium phosphite.

[5] = 3,000 ppm potassium phosphite, tests 1-4

With C=CCc1ccc(O)c(OC)c1 [eugenol, reference compound] the “percentages of decayed fruit” value (Penicillium digitatum; eugenol 1,100 ppm, 2 minutes at 38° C., kept at 7° C., after 9 days) was 12%, the “percentages of decayed fruit” value (Penicillium digitatum; eugenol 1,100 ppm, 2 minutes at 38° C., kept at 7° C., after 18 days) was 73% and the “percentages of decayed fruit” value (Penicillium digitatum; eugenol 1,100 ppm, 2 minutes at 48° C., kept at 7° C., after 9 days) was 4%. The “percentages of decayed fruit” value (Penicillium digitatum; eugenol 1,100 ppm, 2 minutes at 48° C., kept at 7° C., after 18 days) was 60%.

In the case of N#Cc1c[nH]cc1-c1cccc2c1OC(F)(F)O2 [Fluidoxonil], the “% apples with symptoms” value (P. expansum; 200 ppm, 2001-2002, 90 days) is reported as 1.1%, the “% apples with symptoms” value (P. expansum; 200 ppm, 2001-2002, 180 days) is reported as 4.9% and the “% apples with symptoms” value (P. expansum; 200 ppm, 2002-2003, 90 days) is reported as 4.0%. The “% apples with symptoms” value (P. expansum; 200 ppm, 2002-2003, 180 days) was 7.0%.

In the case of Cc1cc(C)nc(Nc2ccccc2)n1 [Pyrimethanil], the “% apples with symptoms” value (P. expansum; 250 ppm, 2001-2002, 90 days) is reported as 4.1%, the “% apples with symptoms” value (P. expansum; 250 ppm, 2001-2002, 180 days) is reported as 16.2% and the “% apples with symptoms” value (P. expansum; 250 ppm, 2002-2003, 90 days) is reported as 4.0%. The “% apples with symptoms” value (P. expansum; 250 ppm, 2002-2003, 180 days) was 19.0%, the “% apples with symptoms” value (P. expansum; 500 ppm, 2001-2002, 90 days) was 3.2% and the “% apples with symptoms” value (P. expansum; 500 ppm, 2001-2002, 180 days) was 21.3%. The “% apples with symptoms” value (P. expansum; 500 ppm, 2002-2003, 90 days) was 0.0% and the “% apples with symptoms” value (P. expansum; 500 ppm, 2002-2003, 180 days) was 14.0%.

For O=[PH](O)O [PA, Phosphonic acid], the “rate of decay, times lower in the presence of PA” value (P. Digitatum [1]; Bioxeda + PA versus Bioxeda) was 2.3 times, the Oranges with symptoms (P. Digitatum [1]; eugenol 1.8 g/L + PA 1,000 ppm (Kphos), stored at 5° C.) was 26% and the Germinated spores (P. expansum spores; 1,000 ppm (Kphos), 22° C., 24 hours) was 27. For the same molecule, the Germinated spores (P. expansum spores; 1,000 ppm (Kphos), 22° C., 48 hours) was 34, the Germinated spores (P. expansum spores; 1,000 ppm (Kphos), 50° 2 min, 24 hours) was 0 and the Germinated spores (P. expansum spores; 1,000 ppm (Kphos), 50° 2 min, 48 hours) was 21. For the same molecule, the Germinated spores (P. expansum spores; 4,000 ppm (Kphos), 22° C., 24 hours) was 11, the Germinated spores (P. expansum spores; 4,000 ppm (Kphos), 22° C., 48 hours) was 11 and the Germinated spores (P. expansum spores; 4,000 ppm (Kphos), 50° 2 min, 24 hours) was 0. For the same molecule, the Germinated spores (P. expansum spores; 4,000 ppm (Kphos), 50° 2 min, 48 hours) was 0, the “activity of PA” value (P. expansum spores; ambient temperature, even at 4,000 ppm) was “partial” and the “Oranges with symptoms 12 D 5 0C = 3 D SPC (1)” value (P. Digitatum [2]) was 0.5. For the same molecule, the “% apples with symptoms” value (P. expansum; 1,000 ppm - 50° C. 2 min, 2001-2002, 90 days) was 0.0%, the “% apples with symptoms” value (P. expansum; 1,000 ppm - 50° C. 2 min, 2001-2002, 180 days) was 4.7% and the “% apples with symptoms” value (P. expansum; 1,000 ppm - 50° C. 2 min, 2002-2003, 90 days) was 0.0%. The “% apples with symptoms” value (P. expansum; 1,000 ppm - 50° C. 2 min, 2002-2003, 180 days) was 6.3%, the “% apples with symptoms” value (P. expansum; 1,000 ppm, 2001-2002, 90 days after treatment, 2° C.) was 3.1% and the “% apples with symptoms” value (P. expansum; 1,000 ppm, 2001-2002, 180 days after treatment, 2° C.) was 13.1%. The “% apples with symptoms” value (P. expansum; 1,000 ppm, 2002-2003, 90 days after treatment, 2° C.) was 4.9%, the “% apples with symptoms” value (P. expansum; 1,000 ppm, 2002-2003, 180 days after treatment, 2° C.) was 11.1% and the activity in vivo (P. expansum; PA at ambient temperature on P. expansum in apples) was ~0. For the same molecule, the phytotoxicity (oranges) was “No phytotoxicity”, the “% oranges with symptoms 15 D 5° C. + 5 D SPC” value (from here on “% oranges”) (P. Digitatum [3]; 2,000 ppm, no thermotherapy) was 6.0% and the efficacy (P. Digitatum [3]; 4,000 ppm combined with thermotherapy) was 73.5%. The “% oranges” value (P. Digitatum [3]; 4,000 ppm, no thermotherapy) was 5.1%, the “% oranges” value (P. Digitatum [3]; Thermotherapy (50° C. 3 min) + 2,000 ppm) was 4.0% and the “% oranges” value (P. Digitatum [3]; Thermotherapy (50° C. 3 min) + 4,000 ppm) was 2.7%.

In the case of potassium phosphite, the “Average % of decayed fruit” value ([4]; 3,000 ppm potassium phosphite) is reported as 42.5%, the “% of decayed fruit” value [4, 5] is reported as 50% and 60% and 30% and the “Number of fruit decayed” value [4, 5] is reported as 5 and 6 and 3. For the same molecule, the “Number of fruit unaffected” value [4, 5] was 5 and 4 and 7, the “percentages of decayed fruit” value (Penicillium digitatum; potassium phosphite, 38° C., after 9 days) was 14% and the “percentages of decayed fruit” value (Penicillium digitatum; potassium phosphite, 38° C., after 18 days) was 76%. The “percentages of decayed fruit” value (Penicillium digitatum; potassium phosphite, 48° C., after 9 days) was 3% and the “percentages of decayed fruit” value (Penicillium digitatum; potassium phosphite, 48° C., after 18 days) was 44%.

C=CCOC(Cn1ccnc1)c1ccc(Cl)cc1Cl (stereo not shown) [Imazalil, imazalil, reference compound] was tested, and the “Average % of decayed fruit” value ([4]; 300 ppm imazalil) was 42.5%.
